Consider three compounds from patent US20220009920A1 (GB005, Inc., priority 2020, published 2022).

Holding throughout (assay): Large panel kinase profiling
Common to all, as to assay type: biochemical
Settings in all cases: 1 μM test article, 1 mM ATP

One test deals with T1, EPHB1 (Homo sapiens, UniProt P54762).
T1 sequence (P54762 18-984): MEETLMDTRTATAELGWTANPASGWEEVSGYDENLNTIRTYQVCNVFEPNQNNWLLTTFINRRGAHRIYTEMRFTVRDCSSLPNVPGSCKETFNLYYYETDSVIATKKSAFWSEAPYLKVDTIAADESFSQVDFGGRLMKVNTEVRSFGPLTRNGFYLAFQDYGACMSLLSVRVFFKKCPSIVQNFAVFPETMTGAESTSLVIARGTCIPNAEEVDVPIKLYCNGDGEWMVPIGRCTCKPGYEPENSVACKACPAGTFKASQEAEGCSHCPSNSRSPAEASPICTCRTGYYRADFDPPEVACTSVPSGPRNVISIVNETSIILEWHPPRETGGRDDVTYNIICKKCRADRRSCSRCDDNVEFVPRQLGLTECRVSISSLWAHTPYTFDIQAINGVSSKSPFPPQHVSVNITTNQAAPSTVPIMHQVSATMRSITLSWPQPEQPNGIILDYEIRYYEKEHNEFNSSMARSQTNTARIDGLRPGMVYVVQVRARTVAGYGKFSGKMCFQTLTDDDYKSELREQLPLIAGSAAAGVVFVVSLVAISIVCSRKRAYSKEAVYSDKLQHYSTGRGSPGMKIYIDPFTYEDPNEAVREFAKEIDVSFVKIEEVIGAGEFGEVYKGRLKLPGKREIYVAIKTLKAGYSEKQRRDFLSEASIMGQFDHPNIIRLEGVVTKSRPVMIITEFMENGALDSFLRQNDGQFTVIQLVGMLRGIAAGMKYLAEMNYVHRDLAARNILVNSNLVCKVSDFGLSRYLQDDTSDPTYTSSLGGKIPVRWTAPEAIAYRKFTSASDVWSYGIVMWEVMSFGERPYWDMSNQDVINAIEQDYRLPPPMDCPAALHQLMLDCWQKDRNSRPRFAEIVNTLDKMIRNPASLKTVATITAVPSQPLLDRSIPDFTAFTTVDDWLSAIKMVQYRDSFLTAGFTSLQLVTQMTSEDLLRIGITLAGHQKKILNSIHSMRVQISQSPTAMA
In a few lines: (§1)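 CSox-Sensor fluorescence readout; test article 1 μM, ATP 1 mM, 30° C.; kinetic reads at 1-min intervals, Ex 360/Em 485 nm.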

A further test deals with T2, EPHB3 (Homo sapiens, UniProt P54753).
T2 sequence (P54753 34-998): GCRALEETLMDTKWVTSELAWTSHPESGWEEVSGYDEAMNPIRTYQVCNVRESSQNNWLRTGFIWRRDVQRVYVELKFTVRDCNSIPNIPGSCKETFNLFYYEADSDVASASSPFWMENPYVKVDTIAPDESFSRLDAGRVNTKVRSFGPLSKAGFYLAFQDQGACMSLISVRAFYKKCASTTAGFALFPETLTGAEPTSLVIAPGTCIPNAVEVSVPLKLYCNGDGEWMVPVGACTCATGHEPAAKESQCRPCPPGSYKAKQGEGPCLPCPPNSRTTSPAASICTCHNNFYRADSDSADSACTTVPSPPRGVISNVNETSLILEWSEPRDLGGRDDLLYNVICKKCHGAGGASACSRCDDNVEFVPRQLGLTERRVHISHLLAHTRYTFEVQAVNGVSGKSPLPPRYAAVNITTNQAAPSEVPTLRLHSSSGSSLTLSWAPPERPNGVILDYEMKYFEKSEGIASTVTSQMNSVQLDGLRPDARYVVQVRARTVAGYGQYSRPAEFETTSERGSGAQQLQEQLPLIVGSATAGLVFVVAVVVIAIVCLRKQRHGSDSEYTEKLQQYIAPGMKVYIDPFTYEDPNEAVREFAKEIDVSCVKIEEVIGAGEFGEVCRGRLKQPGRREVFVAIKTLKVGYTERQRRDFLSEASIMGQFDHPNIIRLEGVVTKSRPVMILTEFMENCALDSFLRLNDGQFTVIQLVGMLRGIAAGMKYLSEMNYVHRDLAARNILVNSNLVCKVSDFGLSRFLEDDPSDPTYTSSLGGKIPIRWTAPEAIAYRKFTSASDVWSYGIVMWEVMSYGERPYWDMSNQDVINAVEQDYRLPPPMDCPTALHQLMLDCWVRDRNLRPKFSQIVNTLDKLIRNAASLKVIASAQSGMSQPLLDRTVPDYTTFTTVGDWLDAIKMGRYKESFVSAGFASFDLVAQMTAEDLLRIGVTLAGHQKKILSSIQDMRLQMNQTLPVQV
In short, it runs like this:
as §1

Another test concerns the target T3, NUAK1 (Homo sapiens, UniProt O60285).
T3 sequence (O60285 1-661): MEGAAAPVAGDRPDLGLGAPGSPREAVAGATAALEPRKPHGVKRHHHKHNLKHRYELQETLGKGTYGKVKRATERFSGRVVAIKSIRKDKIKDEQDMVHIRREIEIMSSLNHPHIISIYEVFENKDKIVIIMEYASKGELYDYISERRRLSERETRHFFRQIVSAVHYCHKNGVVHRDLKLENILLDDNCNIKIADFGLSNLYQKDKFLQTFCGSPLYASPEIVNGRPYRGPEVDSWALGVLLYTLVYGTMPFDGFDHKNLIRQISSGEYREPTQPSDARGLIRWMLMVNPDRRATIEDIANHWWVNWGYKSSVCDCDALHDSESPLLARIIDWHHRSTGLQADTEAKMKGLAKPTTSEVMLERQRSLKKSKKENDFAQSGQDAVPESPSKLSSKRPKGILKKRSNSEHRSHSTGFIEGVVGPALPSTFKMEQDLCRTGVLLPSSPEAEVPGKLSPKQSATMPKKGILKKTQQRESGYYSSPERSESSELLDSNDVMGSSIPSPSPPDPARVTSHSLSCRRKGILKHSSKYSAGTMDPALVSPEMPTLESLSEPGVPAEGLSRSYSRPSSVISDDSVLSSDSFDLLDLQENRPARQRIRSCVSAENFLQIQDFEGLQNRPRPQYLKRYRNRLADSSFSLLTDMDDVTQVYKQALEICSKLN
In short, it runs like this: as §1

A further test addresses T4, YES (Homo sapiens, UniProt P07947).
T4 construct: AssayQuant Technologies, Inc. (contract laboratory that ran the panel)
In short, it runs like this: as §1

T4 sequence (P07947 whole entry, species assumed): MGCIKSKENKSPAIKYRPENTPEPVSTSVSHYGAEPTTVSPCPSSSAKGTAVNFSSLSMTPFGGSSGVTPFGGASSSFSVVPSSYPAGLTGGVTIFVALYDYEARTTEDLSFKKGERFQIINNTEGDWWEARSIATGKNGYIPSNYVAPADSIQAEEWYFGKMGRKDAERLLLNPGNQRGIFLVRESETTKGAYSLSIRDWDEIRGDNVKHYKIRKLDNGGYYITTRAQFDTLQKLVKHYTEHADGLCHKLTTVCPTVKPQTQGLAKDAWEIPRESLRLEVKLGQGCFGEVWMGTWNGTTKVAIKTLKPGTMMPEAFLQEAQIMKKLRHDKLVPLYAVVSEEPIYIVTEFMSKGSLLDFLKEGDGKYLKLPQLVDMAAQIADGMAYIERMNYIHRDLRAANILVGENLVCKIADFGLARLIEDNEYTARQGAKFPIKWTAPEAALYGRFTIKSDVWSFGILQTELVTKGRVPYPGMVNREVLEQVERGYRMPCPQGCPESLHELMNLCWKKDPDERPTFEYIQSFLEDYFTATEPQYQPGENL

The inhibition is the drop in the measured response relative to a control, in per cent. `C=CC(=O)N1CCCC(c2c(F)cc(C(N)=O)c3[nH]c4c(c23)CCCCC4)C1` (single isomer, unassigned) [Compound 5-6]: the inhibition at 1 µM is 14.5% at EPHB1, 17.6% on EPHB3, 3.8% at NUAK1 and 8.8% against YES.
`C=CC(=O)N1CCC[C@@H](c2c(F)cc(C(N)=O)c3[nH]c4c(c23)CC2(CC4)CC2)C1` [Compound 6-2, (S)-5-(1-acryloylpiperidin-3-yl)-6-fluoro-1,2,4,9-tetrahydrospiro[carbazole-3,1′-cyclopropane]-8-carboxamide]: the inhibition at 1 µM was 12.4% against EPHB1, -24.4% against EPHB3, 13.2% at NUAK1 and 27% against YES.
As for `C=CC(=O)N1CCC[C@@H](c2c(F)cc(C(N)=O)c3[nH]c4c(c23)CCC4)C1` [Compound 10-2, (S)-8-(1-acryloylpiperidin-3-yl)-7-fluoro-1,2,3,4-tetrahydrocyclo-penta[b]indole-5-carboxamide], the inhibition at 1 µM against EPHB1 was -3.1%; against EPHB3 it was -10.1%; on NUAK1 it was -9.3%; against YES it was 23.9%.
